Measured values: BigSolDB 2.1

COC(=O)[C@H](c1ccccc1Cl)N1CCc2sccc2C1.O=S(=O)(O)O
solubility (mole fraction)
Details | 273.15 K | 278.15 K | 283.15 K | 288.15 K | 293.15 K | 298.15 K | 303.15 K | 308.15 K
in MTBE | 6.2e-05 | 6.5e-05 | 7.5e-05 | 8.6e-05 | 0.000101 | 0.00011 | 0.000122 | 0.000125
in acetone | 0.0188 | 0.0262 | 0.0339 | 0.0436 | 0.0474 | 0.0567 | 0.0672 | 0.076
in ethyl acetate | 0.000278 | 0.000325 | 0.000342 | 0.000401 | 0.000457 | 0.000511 | 0.000543 | 0.000619
in isopropanol | 0.00815 | 0.0113 | 0.0132 | 0.0198 | 0.0237 | 0.0305 | 0.0382 | 0.0463
in methyl acetate | 0.000959 | 0.00103 | 0.00112 | 0.00122 | 0.00133 | 0.00151 | 0.00188 | 0.00214
in n-butanol | 0.0502 | 0.056 | 0.0655 | 0.0686 | 0.0771 | 0.08 | 0.0869 | 0.0952
in sec-butanol | 0.00377 | 0.00528 | 0.00678 | 0.00961 | 0.0127 | 0.016 | 0.0191 | 0.0238
